Literature values, collected in publication PMC10855781 (International Journal of Molecular Sciences, 2024).
Entries after “also recorded” stand apart in the source; their conditions may differ. Read-outs that look alike come from different tables or passages of the source.

How the values were obtained:
PC3 cancer cell lines = conditions: PC3, 1.5 h incubation; concentration for internalization of 50% of the conjugate in living cells; ref [84]; read-out: cellular uptake (UC50)
Source text: (§1) Table 4 In vitro and in vivo activity of bombesin analog–daunomycin conjugates on PC3 cells. | column: L1: Dau=Aoa-LRRY- […]le-NH2; L5: Dau=Aoa-LRRY- fQWAVGHStaL-NH2; L6: Dau=Aoa-LRRY- fQWAVβAlaHStaNle-NH2

PC3 cells = conditions: ref [84], read-out: cytostatic effect (IC50)
Source text: as §1

lysosomal homogenate = conditions: up to 72 h
[1] = tested on: PC-3 human prostatic adenocarcinoma; parameters: method as in PMID 36834815; conditions: s.c. PC-3, ref [84]
Source text: This 14-mer peptide (Glp-[…]NH2), first discovered in the skin of the frog Bombina bombina, is associated with the gastrin-releasing peptide (GRP) as a mammalian counterpart. The bombesin receptor family comprises neuromedin receptor B (NMB-R, or BB1), gastrin-releasing peptide receptor (GRP-R, or BB2) and bombesin receptor subtype 3 (BRS-3, or BB3). Among them, GRP-R has been the most investig ...

[2] = rat liver lysosomal homogenate; conditions: up to 6 h
PANC-1 tumor = conditions: ref [110]; for tumor growth inhibition by tumor volume: eighteen treatments, day 74
Description: The in vivo tumor growth inhibitory effect of the conjugate and free Dau was investigated on s.c.-developed PANC-1 tumor-bearing SCID female mice. The free drug was applied once a week at a maximum tolerated dose of 1 mg/kg body weight (three treatments), while the conjugate was administered, on average, three times per a week either at a 2 mg/kg or 10 mg/kg dose, calculated as per the Dau content (eighteen treatments altogether). The first treatment was given on day 10 after tumor inoculation. After the third treatment with free Dau, the animals lost 20% of their weight; therefore, the mice i ...

[3] = tested on: PANC-1 (human pancreas adenocarcinoma); conditions: 10 μM, 72 h treatment, ref [110]
Description: (§2) We assessed a modified version of this peptide as a homing device, where Cys was replaced by Ser because the thiol group is not necessary to introduce an oxime linkage. […] Using this conjugate at 10 μM concentration, the cell viability of the PANC-1 cells was 0.1% after a 72 h treatment. In contrast, the cell viability of normal human dermal fibroblast (NHDF), a model of healthy cells, was roughly 75%, showing a significa ...

[4] = tested on: normal human dermal fibroblast (NHDF); conditions: 10 μM, 72 h treatment, ref [110]
Description: as §2

[5] = lysosomal homogenate; Dau=Aoa-Gly-OH, Dau=Aoa-Gly-Phe-OH, H-Lys(Dau=Aoa)-OH; ref [110]
[6] = tested on: different cancer cell lines, e.g. HT-29; conditions: ref [18]
Source text: In our group, we synthesized conjugates based on a heptapeptide (VHLGYAT) selected by Zhang et al. and tested them on HT-29 human colon adenocarcinoma. Since sequence modification may result in different oxime-linked Dau-amino acid fragments, a cathepsin B- labile spacer was incorporated to the N-terminal of the homing peptide. From the parent compound (Dau=Aoa-LRRY-VHLGYAT-NH2), the potential positions that can be substituted were selected using Ala-scan.

HT-29 tumor = conditions: mouse, in vivo
Description: In our group, we synthesized conjugates based on a heptapeptide (VHLGYAT) selected by Zhang et al. and tested them on HT-29 human colon adenocarcinoma. Since sequence modification may result in different oxime-linked Dau-amino acid fragments, a cathepsin B- labile spacer was incorporated to the N-terminal of the homing peptide. From the parent compound (Dau=Aoa-LRRY-VHLGYAT-NH2), the potential positions that can be substituted were selected using Ala-scan. […] Statistical analysis was performed by Mann-Whitney test. *, ** and *** mean significant at p < 0.05, p < 0.01 and p < 0.001, respectively. Adapted with permission from ref. [18]. 2019, Elsevier. TEXT PRINTED IN THE PICTURE: (a) Dau: Tumour weight (g): 16% | (a) Parent: Tumour weight (g): 35% | (a) G/F exchange: Tumour weight (g): 11% | (b) Dau: Liver weight (g): 72% | (b) Parent: Liver weight (g): 101% | (b) G/F exchange: Liver weight (g): 90% | (c) Dau: Prol ...

[7] = tested on: Human cardiac myocytes (HCM); parameters: key: 0: no cardiotoxicity; +: weak; ++: moderate; +++: strong cardiotoxicity; conditions: long-term (0–72 h) cytotoxic effect, impedimetric; ref [75]
Source text: Table 2 Comparative study of cytotoxic effects and cardiotoxicity elicited by selected GnRH-based anthracycline conjugates. | column: Cardiotoxicity || The main drug-related toxic side effect of anthracyclines is cardiotoxicity, leading to cardiomyopathy and heart failure. Comparative experiments to determine the cardiotoxicity of peptide–anthracycline conjugates with different linkages might be informative for the other conjugates with different types of drugs as well. For this purpose, human cardiomyocytes (HCM) and human umbilical vein endothelial cells (HUVEC) were used as models. The long-term (0–72 h) cytotoxic effect of sixteen GnRH-based conjugates containing Dox and Dau was determined by real-time impedimetric sensing using th ...

[8] = tested on: human umbilical vein endothelial cells (HUVEC); parameters: key: 0: no cardiotoxicity; +: weak; ++: moderate; +++: strong cardiotoxicity; conditions: long-term (0–72 h) cytotoxic effect, impedimetric; ref [75]
Source text: Table 2 Comparative study of cytotoxic effects and cardiotoxicity elicited by selected GnRH-based anthracycline conjugates. | column: Cardiotoxicity

[9] = tested on: human breast adenocarcinoma (MCF-7); conditions: ref [75]
Source text: Table 2 Comparative study of cytotoxic effects and cardiotoxicity elicited by selected GnRH-based anthracycline conjugates. | column: IC50 Values (μM)

[10] = tested on: human colorectal adenocarcinoma (HT-29); conditions: Table 2; ref [75]
Source text: Table 2 Comparative study of cytotoxic effects and cardiotoxicity elicited by selected GnRH-based anthracycline conjugates. || Table 3 In vivo tumor growth inhibition of a few relevant Dau-GnRH-III conjugates. | column: Cytostatic Effect (IC50: μM) on HT-29 cells

Dau=Aoa-LRRY- QWAVGHLNle-NH2 [L1]
EC50 (PC3 cancer cell lines): 22.9 µM | IC50 (PC3 cells): 4.38 ± 0.33 µM

Dau=Aoa-GFLG-K(Dau=Aoa)SKAAKN-OH [listing 1 of 2 here]
fragment found (lysosomal homogenate): Dau=Aoa-Gly-Phe-OH, within 72 h; also recorded: H-Lys(Dau=Aoa)-OH, within 72 h

Dau=Aoa-LRRY- fQWAVβAlaHStaNle-NH2 [L6]
EC50 (PC3 cancer cell lines): 16.1 µM | IC50 (PC3 cells): 18 ± 3.01 µM | tumor volume inhibition ([1]; i.p. 10 mg Dau-content/kg every fifth day from day 9, five treatments, day 33, Dau 1 mg/kg, terminated day 26): 31.4% | tumor weight inhibition ([1]; i.p. 10 mg Dau-content/kg, five treatments, day 33): 33.1% | tumor DT enhancement ([1]; tumor doubling time, 10 mg Dau-content/kg): 11.5%

Dau=Aoa-LRRY- QWAVGHLNle-NH2
fragment found [2]: Dau=Aoa-Leu-OH, less than 30 min

NH2-TFFYGGSRGKRNNFKTEEY-CONH2
fragment found (lysosomal homogenate): H-Lys(Dau=Aoa)-OH, major, within 1 h

N-O-CH2-CO-TFFYGGSRGKRNNFKTEEY-CONH2
fragment found (lysosomal homogenate): Dau=Aoa-Thr-OH, major, within 1 h

Dau=Aoa-GFLG-K(Dau=Aoa)SKAAKN-OH [listing 2 of 2 here]
tumor growth inhibition by tumor volume (PANC-1 tumor; 2 mg/kg (Dau content)): 14% | tumor weight reduction (PANC-1 tumor; 2 mg/kg (Dau content)): 27.3% | tumor growth inhibition by tumor volume (PANC-1 tumor; 10 mg/kg (Dau content)): 32.2% | tumor weight reduction (PANC-1 tumor; 10 mg/kg (Dau content)): 30.4% | toxic side effects (PANC-1 tumor; 2 or 10 mg/kg Dau content): No toxic side effects | highest tumor inhibition rate (PANC-1 tumor; day 67, after 16 treatments, dose not stated): 43% | cell viability [3]: 0.1% | cell viability [4]: roughly 75% | time of release of three drug-containing metabolites [5]: ≤ 72 h

Dau=Aoa-LRRY- fQWAVβAlaHStaNle-NH2
fragment found [2]: Dau=Aoa-Leu-OH, less than 30 min

Dau=Aoa-LRRY-VHLFYAT-NH2
in vitro cytostasis, times higher activity than the parent conjugate ([6]; different cancer cell lines): 2–5 times | in vitro cytostasis, times higher activity than the parent conjugate ([6]; on HT-29): up to 2.6 times | Liver weight, percent label in Figure 5b (HT-29 tumor): 90%

COc1cccc2c1C(=O)c1c(O)c3c(c(O)c1C2=O)C[C@@](O)(C(=O)CO)C[C@@H]3O[C@H]1C[C@H](N)[C@H](O)[C@H](C)O1 [doxorubicin (Dox), doxorubicin]
Cardiotoxicity, HCM [7]: +++ | Cardiotoxicity, HUVEC [8]: +++ | IC50 [9]: 100 nM | IC50 [10]: 100 nM

Dau=Aoa-LRRY- fQWAVGHStaL-NH2
fragment found [2]: Dau=Aoa-Leu-OH, less than 30 min
